Reference: article PMC9516332 (Frontiers in Oncology, 2022)
Like-named read-outs stand apart in the source and are kept apart here.

How the values were obtained:
Experiment in all cases: Kinase panel profiling at 1 µmol/L (MSA or IMAP), percentage inhibition
Format in all cases: biochemical
[1] = target: panel of 255 wild-type kinases (Homo sapiens, UniProt P35916); details: read-out: %-inhibition at 1 µmol/L, FLT4
[2] = target: panel of 255 wild-type kinases (Homo sapiens, UniProt Q9BUB5); details: read-out: %-inhibition, MNK1
[3] = target: panel of 255 wild-type kinases (Homo sapiens, UniProt P04629); details: read-out: %-inhibition at 1 µmol/L, TRKA
[4] = target: panel of 255 wild-type kinases (Homo sapiens, UniProt Q07912); details: read-out: %-inhibition ACK
[5] = target: panel of 255 wild-type kinases (Homo sapiens, UniProt P54646); details: read-out: %-inhibition AMPKα2/β1/γ1
[6] = target: T1, panel of 255 wild-type kinases (Homo sapiens, UniProt Q13043); details: read-out: %-inhibition, MST1
T1 sequence (Q13043 1-487): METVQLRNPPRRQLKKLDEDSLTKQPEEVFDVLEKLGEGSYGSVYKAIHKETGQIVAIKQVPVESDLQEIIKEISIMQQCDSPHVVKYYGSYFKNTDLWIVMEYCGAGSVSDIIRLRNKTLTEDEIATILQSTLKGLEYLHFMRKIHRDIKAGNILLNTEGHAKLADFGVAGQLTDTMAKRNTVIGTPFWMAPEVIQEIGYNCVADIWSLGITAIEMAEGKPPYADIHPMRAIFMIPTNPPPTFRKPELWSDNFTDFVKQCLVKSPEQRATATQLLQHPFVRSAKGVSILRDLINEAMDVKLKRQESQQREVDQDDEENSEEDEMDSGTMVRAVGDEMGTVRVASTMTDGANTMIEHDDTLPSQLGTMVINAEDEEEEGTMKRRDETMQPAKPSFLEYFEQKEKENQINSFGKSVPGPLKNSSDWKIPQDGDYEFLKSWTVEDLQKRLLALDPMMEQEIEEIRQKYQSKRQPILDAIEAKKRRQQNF

[7] = target: panel of 255 wild-type kinases (Homo sapiens, UniProt Q8N4C8); details: read-out: %-inhibition, MINK
[8] = target: T2, panel of 255 wild-type kinases (Homo sapiens, UniProt P53778); details: read-out: %-inhibition, p38γ
T2 sequence (P53778 1-367): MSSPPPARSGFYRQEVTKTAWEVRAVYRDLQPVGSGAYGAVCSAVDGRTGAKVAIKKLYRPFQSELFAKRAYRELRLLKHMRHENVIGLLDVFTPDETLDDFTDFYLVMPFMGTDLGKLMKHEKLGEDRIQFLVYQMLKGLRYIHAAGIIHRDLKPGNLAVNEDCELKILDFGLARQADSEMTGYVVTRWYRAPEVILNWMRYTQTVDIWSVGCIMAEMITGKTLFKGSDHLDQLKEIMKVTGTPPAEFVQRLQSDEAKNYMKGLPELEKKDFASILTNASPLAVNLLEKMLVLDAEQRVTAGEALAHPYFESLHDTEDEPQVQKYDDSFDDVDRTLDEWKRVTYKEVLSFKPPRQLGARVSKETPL

[9] = target: T3, panel of 255 wild-type kinases (Homo sapiens, UniProt Q9BXA7); details: read-out: %-inhibition at 1 µmol/L, TSSK1
T3 sequence (Q9BXA7 1-367): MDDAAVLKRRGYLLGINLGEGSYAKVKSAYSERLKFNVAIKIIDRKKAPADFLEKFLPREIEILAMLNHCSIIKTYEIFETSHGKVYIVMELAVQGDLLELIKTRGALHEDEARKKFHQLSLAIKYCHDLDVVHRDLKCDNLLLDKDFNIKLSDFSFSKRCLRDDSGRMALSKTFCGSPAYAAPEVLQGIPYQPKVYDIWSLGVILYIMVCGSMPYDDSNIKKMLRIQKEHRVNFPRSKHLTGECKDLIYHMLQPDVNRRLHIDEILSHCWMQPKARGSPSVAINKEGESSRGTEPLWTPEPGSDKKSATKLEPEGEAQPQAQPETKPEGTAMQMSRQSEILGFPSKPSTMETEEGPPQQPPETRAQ

[10] = target: panel of 255 wild-type kinases (Homo sapiens, UniProt P08631); details: read-out: %-inhibition at 1 µmol/L, HCK
[11] = target: panel of 255 wild-type kinases (Homo sapiens, UniProt P49760); details: read-out: %-inhibition at 1 µmol/L, CLK2
[12] = kinase FLT4, 1 µmol/L single concentration
[13] = MNK1, 1 µmol/L single concentration
[14] = kinase TRKA, 1 µmol/L single concentration
[15] = ACK kinase assay, 1 µmol/L single concentration
[16] = AMPKα2/β1/γ1 kinase assay, 1 µmol/L single concentration
[17] = MST1, 1 µmol/L single concentration
[18] = MINK, 1 µmol/L single concentration
[19] = p38γ, 1 µmol/L single concentration
[20] = kinase TSSK1, 1 µmol/L single concentration
[21] = kinase HCK, 1 µmol/L single concentration
[22] = kinase CLK2, 1 µmol/L single concentration

SMILES | inhibition at 1 µM [1, 12] [%] | inhibition at 1 µM [2, 13] [%] | inhibition at 1 µM [3, 14] [%] | inhibition at 1 µM [4, 15] [%] | inhibition at 1 µM [5, 16] [%] | inhibition at 1 µM [6, 17] [%] | inhibition at 1 µM [7, 18] [%] | inhibition at 1 µM [8, 19] [%] | inhibition at 1 µM [9, 20] [%] | inhibition at 1 µM [10, 21] [%] | inhibition at 1 µM [11, 22] [%] | further results
CCc1nc(C(N)=O)c(Nc2ccc(N3CCC(N4CCN(C)CC4)CC3)c(OC)c2)nc1NC1CCOCC1 [gilteritinib] | 99 | 70 | 100 | 90 | 21 | 92 | 80 | -0.507 | 95 | 87 | 39 | –
CCN1C(=O)N(c2c(F)c(OC)cc(OC)c2F)Cc2cnc3[nH]c(CN4CCOCC4)cc3c21 [pemigatinib] | 99 | -4.63 | 14 | 4.32 | -5 | 6 | -4.31 | 1.73 | 8 | 31 | 6.37 | –
Cn1cc(-c2cc3c(N4CCN(c5ncc([C@@](C)(N)c6ccc(F)cc6)cn5)CC4)ncnn3c2)cn1 [avapritinib] | 88 | 72 | 65 | 73 | 3 | 5.32 | 4.44 | -0.867 | 2.83 | 52 | 11 | –
CNC(=O)c1ccc(-c2cnc3ncc(Cc4ccc5ncccc5c4)n3n2)cc1F [capmatinib] | – | – | – | – | – | – | – | – | – | – | – | inhibition at 1 µM [1]: 10%; inhibition at 1 µM [2]: -1%; inhibition at 1 µM [3]: 39%; inhibition at 1 µM [4]: 1%; inhibition at 1 µM [5]: -1.21%; inhibition at 1 µM [6]: -2%; inhibition at 1 µM [7]: -4%; inhibition at 1 µM [8]: -1.26%; inhibition at 1 µM [9]: 3%; inhibition at 1 µM [10]: -1.63%; inhibition at 1 µM [11]: 7%
C[C@H](Nc1ncnc2nc[nH]c12)c1cc2cccc(Cl)c2c(=O)n1-c1ccccc1 [duvelisib] | 0.523 | 0.446 | 9 | 2.28 | -0.155 | 10 | 0.317 | -4 | -4 | 6 | 3.58 | –
